# From patent publication US6979686B1, “Substituted pyrazoles as p38 kinase inhibitors” (Pharmacia Corporation, priority 2001, dated 2005)
# Where a name gives a salt, the structure may show the parent alone.
# Target: T1, human p38 kinase alpha (Homo sapiens, UniProt Q16539)
# T1 construct: GST (N, cleaved yes); made in house; host or cells: E. coli DH10B
# Test: p38 kinase in vitro assay, phosphorylation of biotinylated PHAS-I with 32P-ATP
# Format: biochemical
# Conditions: @ 1.0 uM
# Experimental: The coding region of the human p38a cDNA was obtained by PCR-amplification from RNA isolated from the human monocyte cell line THP.1. […] Random primer, dNTP's and Superscript™ reagents were all purchased from Life-Technologies, Gaithersburg, Mass. The reaction was incubated at 42° C. for 1 hour. Amplification of p38 cDNA was performed by aliquoting 5 μl of the reverse transcriptase reaction into a 100 μl PCR reaction containing the following: 80 μl dH2O, 2 μl 50 mM DNTP's, 1 μl each of forward and reverse primers (50 pmol/μl), 10 μl of 10×buffer and 1 μl Expand™ polymerase (Boehringer Mannheim). The PCR primers incorporated BamHI sites onto the 5′ and 3′ end of the amplified fragment, and were purchased from Genosys. […] The PCR amplification was carried out in a DNA Thermal Cycler (Perkin Elmer) by repeating 30 cycles of 94° C. for 1 minute, 60° C. for 1 minute and 68° C. for 2 minutes. After amplification, excess primers and unincorporated dNTP's were removed from the amplified fragment with a Wizard™ PCR prep (Promega) and digested with BamHI (New England Biolabs). The BamHI digested fragment was ligated into BamHI digested PGEX 2T plasmid DNA (PharmaciaBiotech) using T-4 DNA ligase (New England Biolabs) as described by T. Maniatis, Molecular Cloning: A Laboratory Manual, 2nd ed. […] The ligation reaction was transformed into chemically competent E. coli DH10B cells purchased from Life-Technologies following the manufacturer's instructions. Plasmid DNA was isolated from the resulting bacterial colonies using a Promega Wizard™ miniprep kit.
# Expression of Human p38a:
# Overnight cultures were grown in-Luria Broth (LB) containing […] ampicillin. The next day, 500 ml of fresh LB was inoculated with 10 ml of overnight culture, and grown in a 2 liter flask at 37° C. with constant shaking until the culture reached an absorbance of 0.8 at 600 nm. Expression of the fusion protein was induced by addition of isopropyl b-D-thiogalactosidse (IPTG) to a final concentration of 0.05 mM. The cultures were shaken for three hours at room temperature, and the cells were harvested by centrifugation. The cell pellets were stored frozen until protein purification.
# Purification of p38 Kinase-α:
# All chemicals were from Sigma Chemical Co. unless noted. Twenty grams of E. coli cell pellet collected from five 1 L shake flask fermentations was resuspended in a volume of PBS (140 mM NaCl, 2.7 mM KCl, 10 mM Na2HPO4, 1.8 mM KH2PO4, pH 7.3) up to 200 ml. The cell suspension was adjusted to 5 mM DTT with 2 M DTT and then split equally into five 50 ml Falcon conical tubes. The cells were sonnicated (Ultrasonics model W375) with a 1 cm probe for 3×1 minutes (pulsed) on ice. Lysed cell material was removed by centrifugation (12,000×g, 15 minutes) and the clarified supernatant applied to glutathione-sepharose resin (Pharmacia).
# Glutathione-sepharose Affinity Chromatography:
# The resin was collected by centrifugation (600×g, 5 min) and washed with 2×150 ml PBS/1% Triton X-100, followed by 4×40 ml PBS. To cleave the p38 kinase from the GST-p38 fusion protein, the glutathione-sepharose resin was resuspended in 6 ml PBS containing 250 units thrombin protease (Pharmacia, specific activity>7500 units/mg) and mixed gently for 4 hours at room temperature. The glutathione-sepharose resin was removed by centrifugation (600×g, 5 min) and washed 2×6 ml with PBS. The PBS wash fractions and digest supernatant containing p38 kinase protein were pooled and adjusted to 0.3 mM PMSF.
# Mono O Anion Exchange Chromatography:
# The thrombin-cleaved p38 kinase was further purified by FPLC-anion exchange chromatography.
# T1 sequence (Q16539 whole entry): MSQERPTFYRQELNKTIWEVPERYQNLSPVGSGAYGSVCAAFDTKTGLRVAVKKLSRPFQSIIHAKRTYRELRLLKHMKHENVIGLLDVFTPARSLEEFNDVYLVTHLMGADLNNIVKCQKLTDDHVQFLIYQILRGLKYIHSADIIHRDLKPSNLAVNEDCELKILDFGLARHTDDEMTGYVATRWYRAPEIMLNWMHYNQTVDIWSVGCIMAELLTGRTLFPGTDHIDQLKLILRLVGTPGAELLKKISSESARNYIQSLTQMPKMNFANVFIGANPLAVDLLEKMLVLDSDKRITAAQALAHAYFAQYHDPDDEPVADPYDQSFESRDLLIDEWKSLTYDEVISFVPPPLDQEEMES
Compound,P38 alpha kinase % inhib @ conc. (uM),P38 alpha kinase % inhib @ conc.
NC(=O)NCCc1[nH]nc(-c2ccc(F)cc2)c1-c1ccncc1 [Example B-1030],76.0% @,
O=C(NCCc1[nH]nc(-c2ccc(F)cc2)c1-c1ccncc1)N1CCOCC1 [Example B-1033],86.0% @,
O=C(NCCc1ccccc1)NCCc1[nH]nc(-c2ccc(F)cc2)c1-c1ccncc1 [Example B-1044],94.0% @,
O=C(NCCc1[nH]nc(-c2ccc(F)cc2)c1-c1ccncc1)N1CCCC1 [Example B-1032],76.0% @,
O=C(NCCc1[nH]nc(-c2ccc(F)cc2)c1-c1ccncc1)c1cccnc1 [Example B-1005],58.0% @,
O=C(NCCCc1[nH]nc(-c2ccc(F)cc2)c1-c1ccncc1)C1CCCN1 (stereo not drawn) [Example B-1232],,81.0% @
C=CCNC(=O)NCCc1[nH]nc(-c2ccc(F)cc2)c1-c1ccncc1 [Example B-1040],72.0% @,
O=S(=O)(NCc1[nH]nc(-c2ccc(F)cc2)c1-c1ccncc1)c1cccc2cccnc12 [Example B-0116],,73.0% @
Cc1ccc(S(=O)(=O)NC(Cc2ccccc2)C(=O)NCCc2[nH]nc(-c3ccc(F)cc3)c2-c2ccncc2)cc1 (stereo not drawn) [Example B-1011],72.0% 2,
CCNC(=O)NCCCc1[nH]nc(-c2ccc(F)cc2)c1-c1ccncc1 [Example B-1226],,89.0% @
O=C(Cc1cccs1)NCCc1[nH]nc(-c2ccc(F)cc2)c1-c1ccncc1 [Example B-1051],68.0% @,
CC(C)COC(=O)NCCCc1[nH]nc(-c2ccc(F)cc2)c1-c1ccncc1 [Example B-1187],76.0% @,
O=C(NCCCc1[nH]nc(-c2ccc(F)cc2)c1-c1ccncc1)c1ccno1 [Example B-1169],80.0% @,

# Same assay, conditions: @ 1.0 uM; read-out: P38 alpha kinase % inhib @ conc.
row,Compound,inhibition at 1 µM
1,O=C(NCc1[nH]nc(-c2ccc(F)cc2)c1-c1ccncc1)c1cc(Cl)cc(Cl)c1 [Example B-0020],73%

# Same assay, conditions: @ 10.0 uM
Compound,"P38 alpha kinase IC50, uM or % inhib @ conc. (uM): % inhib",P38 alpha kinase % inhib @ conc.
Cc1c(-c2ccncc2)c(-c2ccc(F)cc2)nn1CC(=O)Nc1ccccc1Cl [Example B-2422],90.0% @,
Cc1c(-c2ccncc2)c(-c2ccc(F)cc2)nn1CC(=O)Nc1ccc(Cl)nc1 [Example B-2415],94.0% @,
Cc1c(-c2ccncc2)c(-c2ccc(F)cc2)nn1CC(=O)Nc1ccc(C2CCCCC2)cc1 [Example B-2427],87.0% @,
Cc1c(-c2ccncc2)c(-c2ccc(F)cc2)nn1CC(=O)NC(C)CCc1ccccc1 (stereo not drawn) [Example B-2340],,35.0% @

# Same assay, conditions: Table 8; 1% DMSO; read-out: p38α Kinase Assay IC50
row,Compound,IC50
1,"C#CCn1nc(N2CCNCC2)c(-c2ccncc2)c1-c1ccc(Cl)cc1 [Example A-318, 1-[5-(4-chlorophenyl)-4-(4-pyridinyl)-1-(2-propynyl)-1H-pyrazol-3-yl]piperazine, trihydrochloride monohydrate]",290 nM

# Same assay, conditions: activated human p38 kinase alpha, PHAS-I substrate, 50 μM unlabeled ATP; read-out: p38 kinase IC50
row,Compound,IC50
1,Cc1n[nH]c(-c2ccccc2F)c1-c1ccncc1 [Example A-40],1300 nM

# Same assay, conditions: in vitro P38-alpha kinase inhibition; read-out: P38 alpha kinase IC50
row,Compound,IC50
1,CC(NS(=O)(=O)c1cc(Cl)c(Cl)s1)c1[nH]nc(-c2ccc(F)cc2)c1-c1ccncc1 (stereo not drawn) [Example B-0629],200 nM
2,CC(NC(=O)N(C)C)c1[nH]nc(-c2ccc(F)cc2)c1-c1ccncc1 (stereo not drawn) [Example B-0584],660 nM
3,COc1ccc(Br)cc1S(=O)(=O)NCCc1[nH]nc(-c2ccc(F)cc2)c1-c1ccncc1 [Example B-1102],35 nM
4,COc1cccc(CC(=O)NC(Cc2ccccc2)c2[nH]nc(-c3ccc(F)cc3)c2-c2ccncc2)c1 (stereo not drawn) [Example B-0817],3070 nM
5,C=CCOC(=O)NC(Cc1ccccc1)c1[nH]nc(-c2ccc(F)cc2)c1-c1ccncc1 (stereo not drawn) [Example B-0833],950 nM
6,COc1ccc(CC(=O)NC(Cc2ccccc2)c2[nH]nc(-c3ccc(F)cc3)c2-c2ccncc2)cc1 (stereo not drawn) [Example B-0848],1560 nM
7,O=S(=O)(C=Cc1ccccc1)NC(Cc1ccccc1)c1[nH]nc(-c2ccc(F)cc2)c1-c1ccncc1 (stereo not drawn) [Example B-0710],1990 nM
8,CC(C)c1cc(C(C)C)c(C(=O)NCCc2[nH]nc(-c3ccc(F)cc3)c2-c2ccncc2)c(C(C)C)c1 [Example B-1125],560 nM
9,CC(NS(=O)(=O)c1cc(Cl)cc(Cl)c1)c1[nH]nc(-c2ccc(F)cc2)c1-c1ccncc1 (stereo not drawn) [Example B-0641],580 nM
10,CC(=O)Nc1nc(C)c(S(=O)(=O)NC(C)c2[nH]nc(-c3ccc(F)cc3)c2-c2ccncc2)s1 (stereo not drawn) [Example B-0607],2790 nM
11,Cc1cccc(Cl)c1S(=O)(=O)NCCc1[nH]nc(-c2ccc(F)cc2)c1-c1ccncc1 [Example B-1095],< 100 nM
12,CCN(CC)C(=O)NC(C)c1[nH]nc(-c2ccc(F)cc2)c1-c1ccncc1 (stereo not drawn) [Example B-0597],1680 nM
13,CC(NC(=O)c1ccccc1Cl)c1[nH]nc(-c2ccc(F)cc2)c1-c1ccncc1 (stereo not drawn) [Example B-0691],160 nM
14,COc1ccc(NC(=O)N[C@H](C)c2[nH]nc(-c3ccc(F)cc3)c2-c2ccncc2)c(OC)c1 [Example B-0422],< 100 nM

# Same assay, conditions: in vitro P38-alpha kinase; read-out: P38 alpha kinase IC50
row,Compound,IC50
1,N#Cc1ccc(C(=O)N2CCC(c3[nH]nc(-c4ccc(F)cc4)c3-c3ccncc3)CC2)cc1 [Example B-1392],59 nM
2,O=S(=O)(c1ccc(Cl)c(Cl)c1)N1CCC(c2[nH]nc(-c3ccc(F)cc3)c2-c2ccncc2)CC1 [Example B-1452],2410 nM
3,Cc1c(-c2ccncc2)c(-c2ccc(F)cc2)nn1CC(=O)NCCN1CCOCC1 [Example B-2284],4610 nM
4,Cc1c(-c2ccncc2)c(-c2ccc(F)cc2)nn1CC(=O)NC[C@@H]1CCCO1 [Example B-2283],40 nM
5,Cc1cccc(C)c1NC(=O)N1CCC(c2[nH]nc(-c3ccc(F)cc3)c2-c2ccncc2)CC1 [Example B-1380],< 100 nM
6,CC1(C)[C@@H]2CC[C@@]1(S(=O)(=O)NCCCc1[nH]nc(-c3ccc(F)cc3)c1-c1ccncc1)C(=O)C2 [Example B-1277],< 100 nM
7,O=S(=O)(NCCCc1[nH]nc(-c2ccc(F)cc2)c1-c1ccncc1)c1ccc(C(F)(F)F)cc1 [Example B-1264],320 nM
8,O=S(=O)(c1cccc2nonc12)N1CCC(c2[nH]nc(-c3ccc(F)cc3)c2-c2ccncc2)CC1 [Example B-1436],1000 nM
9,O=C(NCCCc1[nH]nc(-c2ccc(F)cc2)c1-c1ccncc1)c1c(F)cc(F)cc1F [Example B-1336],72 nM
10,Cc1c(-c2ccncc2)c(-c2ccc(F)cc2)nn1CC(=O)NCCCN1CCCC1 [Example B-2307],2290 nM
11,O=C(c1cccnc1)N1CCC(c2[nH]nc(-c3ccc(F)cc3)c2-c2ccncc2)CC1 [Example B-1387],< 100 nM
12,O=C(N1CCC(c2[nH]nc(-c3ccc(F)cc3)c2-c2ccncc2)CC1)C(F)(F)F [Example B-1429],< 100 nM
13,N#Cc1cccc(C(=O)NCCCc2[nH]nc(-c3ccc(F)cc3)c2-c2ccncc2)c1 [Example B-1328],32 nM
14,Cc1noc(C)c1C(=O)NCc1[nH]nc(-c2ccc(F)cc2)c1-c1ccncc1 [Example B-0304],550 nM
15,O=S(=O)(NCCCc1[nH]nc(-c2ccc(F)cc2)c1-c1ccncc1)c1cccc(Cl)c1 [Example B-1267],< 100 nM
16,O=S(=O)(c1ccccc1OC(F)(F)F)N1CCC(c2[nH]nc(-c3ccc(F)cc3)c2-c2ccncc2)CC1 [Example B-1463],2340 nM
17,O=C(NCCCc1[nH]nc(-c2ccc(F)cc2)c1-c1ccncc1)c1cccc(F)c1F [Example B-1347],21 nM
